The nature of the data set: pKa of lipid. Type of data set: physicochemical.

A word on the pKa: it is the negative logarithm of the acid dissociation constant. Read a high pKa as a group that holds its proton tightly. With `CCCCCCCCCCCCCCCCCCC(CCCCCCCCCCCCCCCCCC)OC(=O)CCCN(C)C` [compound 111], the pKa was over 7.4.

The values above are taken from US9687550B2, “Compositions for nucleic acid delivery” (Arbutus Biopharma Corporation, priority 2009, dated 2017).
